Source: paper PMC10341786 (International Journal of Molecular Sciences, 2023)

How the values were obtained:
in vitro [1] = conditions: pig
TBEV = assay: microbe, parasite or virus in culture; type: cell-based, Tick-borne encephalitis virus strain Absettarov; conditions: Tick-borne encephalitis virus, PEK, read-out: TBEV EC50
in vitro [2] = conditions: African green monkey
in vitro [3] = conditions: African green monkey; remark: listed apart in the source
WNV = assay: microbe, parasite or virus in culture; type: cell-based, West Nile virus strain Strix nebulosa-12; conditions: West Nile virus, Vero, read-out: WNV EC50
in vitro [4] = conditions: pig; remark: listed apart in the source

Row | Compound | CC50 (in vitro [1]) [µM] | EC50 (TBEV) [µM] | CC50 (in vitro [2]) [µM] | CC50 (in vitro [3]) [µM] | EC50 (WNV) [µM] | melting point [°C] | CC50 (in vitro [4]) [µM]
1 | O=S(=O)(c1ccccc1)N(C1=NOC2CCCCCCC12)S(=O)(=O)c1ccccc1 (centres unmarked) [5c, N-(3a,4,5,6,7,8,9,9a-Octahydrocycloocta[d]isoxazol-3-yl)-N-(phenylsulfonyl)benzenesulfonamide] | > 50 | > 50 | > 50 | > 50 | 18 ± 4 | 107 to 108 | > 50
2 | O=S(=O)(NC1=NOC2(CCCCCCC2)C1)c1ccc2c(c1)OCCO2 [3f] | > 50 | > 50 | > 50 | > 50 | 18 ± 6 | – | > 50
3 | O=S(=O)(c1ccc2c(c1)OCCO2)N(C1=NOC2(CCCCCCC2)C1)S(=O)(=O)c1ccc2c(c1)OCCO2 [4f, N-((2,3-Dihydrobenzo[b][1, 4]dioxin-6-yl)sulfonyl)-N-(1-oxa-2-azaspiro[4.7]dodec-2-en-3-yl)-2,3-dihydrobenzo[b][1, 4]dioxine-6-sulfonamide] | > 50 | 13 ± 6 | > 50 | > 50 | 7.1 ± 1 | 191 to 193 | > 50
4 | Cc1ccc(S(=O)(=O)N(C2=NOC3(CCCCCCC3)C2)S(=O)(=O)c2ccc(C)cc2)cc1 [4d, 4-Methyl-N-(1-oxa-2-azaspiro[4.7]dodec-2-en-3-yl)-N-tosylbenzenesulfonamide] | > 50 | 21 ± 13 | > 50 | > 50 | 3 ± 1.9 | 151 to 153 | > 50
5 | O=S(=O)(c1ccc2ccccc2c1)N(C1=NOC2(CCCCCCC2)C1)S(=O)(=O)c1ccc2ccccc2c1 [4j, N-(Naphthalen-2-ylsulfonyl)-N-(1-oxa-2-azaspiro[4.7]dodec-2-en-3-yl)naphthalene-2-sulfonamide] | > 50 | 17 ± 3 | > 50 | > 50 | 1.3 ± 0.5 | 160 to 161 | > 50
6 | O=S(=O)(c1ccccc1)N(C1=NOC2(CCCCCCC2)C1)S(=O)(=O)c1ccccc1 [4c, N-(Phenylsulfonyl)-N-(1-oxa-2-azaspiro[4.7]dodec-2-en-3-yl)benzenesulfonamide] | > 50 | 9 ± 2 | > 50 | > 50 | 2.6 ± 1.4 | 139 to 141 | > 50
7 | O=S(=O)(c1ccc(F)cc1F)N(C1=NOC2CCCCCCC12)S(=O)(=O)c1ccc(F)cc1F (centres unmarked) [5g, N-((2,4-difluorophenyl)sulfonyl)-2,4-difluoro-N-(3a,4,5,6,7,8,9,9a-octahydrocycloocta[d]isoxazol-3-yl)benzenesulfonamide] | > 50 | 33 ± 15 | > 50 | > 50 | 12 ± 6 | 129 to 131 | > 50
8 | Cc1cc(C)c(S(=O)(=O)NC2=NOC3(CCCCCCC3)C2)c(C)c1 [3e] | > 50 | 18 ± 7 | > 50 | > 50 | 22 ± 4 | – | > 50
9 | O=S(=O)(NC1=NOC2(CCCCCCC2)C1)c1cccnc1 [3l] | > 50 | > 100 | > 50 | > 50 | 11 ± 7 | – | > 50
10 | O=S(=O)(NC1=NOC2(CCCCCCC2)C1)c1ccccc1 [3c] | > 50 | > 50 | > 50 | > 50 | 25 ± 7 | – | > 50
11 | O=S(=O)(NC1=NOC2(CCCCCCC2)C1)c1cccs1 [3k] | > 50 | > 100 | > 50 | > 50 | 6.1 ± 1.3 | – | > 50
12 | CS(=O)(=O)N(C1=NOC2(CCCCCCC2)C1)S(C)(=O)=O [4a, N-(Methylsulfonyl)-N-(1-oxa-2-azaspiro[4.7]dodec-2-en-3-yl)methanesulfonamide] | > 50 | 27 ± 12 | > 50 | > 50 | 10 ± 6 | 139 to 141 | > 50
13 | O=S(=O)(Cc1ccccc1)N(C1=NOC2(CCCCCCC2)C1)S(=O)(=O)Cc1ccccc1 [4b, N-(Benzylsulfonyl)-1-phenyl-N-(1-oxa-2-azaspiro[4.7]dodec-2-en-3-yl)methanesulfonamide] | > 50 | > 50 | > 50 | > 50 | 16 ± 8 | 176 to 177 | > 50
14 | O=S(=O)(NC1=NOC2(CCCCCCC2)C1)c1ccc(F)cc1F [3g] | > 50 | > 100 | > 50 | > 50 | 28.4 ± 2.2 | – | > 50
15 | O=S(=O)(c1ccc(F)cc1F)N(C1=NOC2(CCCCCCC2)C1)S(=O)(=O)c1ccc(F)cc1F [4g, N-((2,4-Difluorophenyl)sulfonyl)-2,4-difluoro-N-(1-oxa-2-azaspiro[4.7]dodec-2-en-3-yl)benzenesulfonamide] | > 50 | > 50 | > 50 | > 50 | 9.8 ± 2.6 | 61 to 62 | > 50
16 | O=S(=O)(c1ccc2c(c1)OCCO2)N(C1=NOC2CCCCCCC12)S(=O)(=O)c1ccc2c(c1)OCCO2 (centres unmarked) [5f, N-((2,3-Dihydrobenzo[b][1, 4]dioxin-6-yl)sulfonyl)-N-(3a,4,5,6,7,8,9,9a-octahydrocycloocta[d]isoxazol-3-yl)-2,3-dihydrobenzo[b][1, 4]dioxine-6-sulfonamide] | > 50 | 29 ± 7 | > 50 | > 50 | 16 ± 10 | 129 to 130 | > 50
17 | O=[N+]([O-])c1ccccc1S(=O)(=O)NC1=NOC2(CCCCCCC2)C1 [3h] | > 50 | 28 ± 7 | > 50 | > 50 | 21.5 ± 0.9 | – | > 50
18 | O=S(=O)(c1cccs1)N(C1=NOC2(CCCCCCC2)C1)S(=O)(=O)c1cccs1 [4k, N-(1-Oxa-2-azaspiro[4.7]dodec-2-en-3-yl)-N-(thiophen-2-ylsulfonyl)thiophene-2-sulfonamide] | > 50 | > 50 | > 50 | > 50 | 10 ± 4 | 147 | > 50
19 | O=S(=O)(c1ccc2ccccc2c1)N(C1=NOC2CCCCCCC12)S(=O)(=O)c1ccc2ccccc2c1 (centres unmarked) [5j, N-(Naphthalen-2-ylsulfonyl)-N-(3a,4,5,6,7,8,9,9a-octahydrocycloocta[d]isoxazol-3-yl)naphthalene-2-sulfonamide] | > 50 | 10 ± 2.4 | > 50 | > 50 | 5.9 ± 1.8 | 160 to 162 | > 50
20 | Cc1ccc(S(=O)(=O)N(C2=NOC3CCCCCCC23)S(=O)(=O)c2ccc(C)cc2)cc1 (centres unmarked) [5d, 4-Methyl-N-(3a,4,5,6,7,8,9,9a-octahydrocycloocta[d]isoxazol-3-yl)-N-tosylbenzenesulfonamide] | > 50 | 34 ± 4 | > 50 | > 50 | 14 ± 8 | 113 to 114 | > 50
21 | O=S(=O)(c1cccnc1)N(C1=NOC2(CCCCCCC2)C1)S(=O)(=O)c1cccnc1 [4l, N-(Pyridin-3-ylsulfonyl)-N-(1-oxa-2-azaspiro[4.7]dodec-2-en-3-yl)pyridine-3-sulfonamide] | > 50 | 15 ± 4 | > 50 | > 50 | 8 ± 4 | 151 to 152 | > 50
22 | Nc1onc(C(=O)OCC23CC4CC(CC(C4)C2)C3)c1CCc1ccccc1 [compound 6, reference compound] | > 100 | 2.29 ± 0.17 | – | > 100 | – | – | > 100
23 | O=S(=O)(Cc1ccccc1)N(C1=NOC2CCCCCCC12)S(=O)(=O)Cc1ccccc1 (centres unmarked) [5b, N-(Benzylsulfonyl)-N-(3a,4,5,6,7,8,9,9a-octahydrocycloocta[d]isoxazol-3-yl)-1-phenylmethanesulfonamide] | > 50 | 21.7 ± 2.8 | > 50 | > 50 | 6.3 ± 1.2 | 198 to 199 | > 50
24 | O=[N+]([O-])c1ccccc1S(=O)(=O)N(C1=NOC2CCCCCCC12)S(=O)(=O)c1ccccc1[N+](=O)[O-] (centres unmarked) [5h, 2-Nitro-N-((2-nitrophenyl)sulfonyl)-N-(3a,4,5,6,7,8,9,9a-octahydrocycloocta[d]isoxazol-3-yl)benzenesulfonamide] | > 50 | 12 ± 6 | – | – | 17 ± 3 | 153 to 154 | > 50
25 | NC(=O)c1nc(F)c[nH]c1=O [Favipiravir, reference compound] | > 1000 | – | > 1000 | > 1000 | 102 ± 28 | – | –
26 | CS(=O)(=O)NC1=NOC2(CCCCCCC2)C1 [3a] | > 50 | > 100 | > 50 | > 50 | 31 ± 2 | – | > 50
27 | Cc1cc(C)c(S(=O)(=O)N(C2=NOC3CCCCCCC23)S(=O)(=O)c2c(C)cc(C)cc2C)c(C)c1 (centres unmarked) [5e, N-(Mesitylsulfonyl)-2,4,6-trimethyl-N-(3a,4,5,6,7,8,9,9a-octahydrocycloocta[d]isoxazol-3-yl)benzenesulfonamide] | > 50 | 10 ± 5 | > 50 | > 50 | 4 ± 0.6 | 148 to 149 | > 50
28 | Cc1ccc(S(=O)(=O)NC2=NOC3(CCCCCCC3)C2)cc1 [3d] | > 50 | > 50 | > 50 | > 50 | 14 ± 5 | – | > 50
